From the METLIN SMRT retention time set (Domingo-Almenara et al. 2019) come the findings set out here.

The nature of this data set: gradient 5% acetonitrile 3 min, to 50% in 2 min, to 85% in 15 min, held 3 min, 100 µL/min. Conditions: column: Zorbax Extend-C18 2.1 x 50 mm; eluents: water / acetonitrile, 0.1% formic acid. In outline:
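The system's dead and dwell volumes were 40 μL and 900 μL, with a Zorbax Extend-C18 column (2.1 × 50 mm, 1.8 μm) run at 100 μL/min in water and acetonitrile containing 0.1% formic acid each. Pure standards were analyzed in mixtures of ~100 molecules by HPLC–quadrupole time-of-flight mass spectrometry in positive and negative ionization mode. Retention time was assigned from computationally picked, manually inspected adduct peaks.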
Turning to `Cc1cc(Cl)ccc1S(=O)(=O)NC1CCc2nn(C)c(=O)n2CC1` (centres undefined), the RP-LC retention time worked out at 708 s.
In turn, `CN(C)c1ccc(CCNC(=O)c2cccc(C(F)(F)F)c2)cc1` showed an RP-LC retention time of 621 s.
On to `Cc1ccc(NC(=O)Cn2nc3cc(C)nc(N4CCCC4)n3c2=O)c(C)c1`, for which the RP-LC retention time was 791 s.
The figure for `CCn1nc(C)n2cc(S(=O)(=O)NC(C)c3ccccc3)cc2c1=O` (centres undefined) is 882 s; for `O=C(COc1cc(O)c2c(=O)c3ccccc3oc2c1)c1ccc(Cl)cc1` it is 1230 s; for `COc1ccc(C(=O)Nc2ccc3c(c2)Sc2ncccc2C(=O)N3C)cc1OC` it is 712 s.
The figure for `COCCCNC(=O)C1(C)Cn2nc(-c3ccccc3)cc2C(=O)N1Cc1ccc(OC)cc1` (centres undefined) is 865 s.
The figure for `CN(C(=O)CN1CCCn2nc(C(=O)O)cc2C1=O)c1ccccc1` is 627 s; for `COc1nccnc1N1CCC(NC(=O)Cc2cccnc2)C1` (centres undefined) it is 556 s; for `O=C(N1CCN(c2ccccc2F)CC1)C1(CCO)CCN(c2ncccn2)C1` (centres undefined) it is 652 s.
The compound `C=CCN1C(=O)C(C)(C)COc2cc(NC(=O)c3cccc(OC)c3OC)ccc21` had an RP-LC retention time of 943 s.
To `CCCCNC(=O)C1CCN(c2nc3ccc(-c4cccnc4)nc3s2)CC1` belongs 588 s.
The figure for `CCc1noc(-c2ccnc(-n3ncc(C(=O)N4CCOCC4)c3C)c2)n1` is 760 s.
The figure for `CCCCN(Cc1nc2nc(C)cc(C)n2n1)C(=O)c1ccccc1` is 757 s.
Compound `CCOc1cccc(CNC(=O)C2CCCN(c3ncnc4c3oc3ccccc34)C2)c1` (centres undefined) displayed an RP-LC retention time of 782 s.
The figure for `Cc1cc(C(=O)N2C[C@@H](C)[C@H](c3nc(-c4ccncc4)no3)C2)n[nH]1` is 619 s.
With `Cc1noc([C@@H]2CN(C(=O)CC(C)(C)C)C[C@H]2CO)n1`, the RP-LC retention time is 644 s.
For the compound `O=C(NC1CCCC1)N1CCC[C@H]1c1nc(-c2ccccc2)n[nH]1`, the RP-LC retention time was determined as 697 s.
To `Cn1c(=O)n(C)c2cc(S(=O)(=O)C3CCCCC3)c(NC(=O)C3CC3)cc21` belongs 814 s.
To `COc1ccc(OCC(=O)N(C)CCc2noc(COc3ccccc3F)n2)cc1` belongs 848 s; to `Cc1ccc(C)c(-c2cc3c(=O)n(Cc4noc(-c5ccccc5)n4)ccn3n2)c1`, 860 s; to `O=C(NC1CC1)[C@@H]1C[C@H](Oc2cccnc2)CN1C(=O)c1ccco1`, 538 s.
The figure for `O=C(NCc1cccc(Cl)c1)C1CC(=O)N(c2n[nH]c3cccc(F)c23)C1` (centres undefined) is 749 s; for `CCOC(=O)c1cnc2c(-c3ccc(Cl)cc3)c(COC)nn2c1N` it is 1150 s.
Regarding `CCC(=O)N(C1CCOCC1)C1CCN(S(=O)(=O)c2ccccc2CC)CC1`, the RP-LC retention time was 908 s.
To `CC1CCCN(c2cc(SCC(=O)Nc3ccc(F)cc3)ncn2)C1` (centres undefined) belongs 955 s; to `O=C(NCc1ccccc1C(F)(F)F)c1cn2ccccc2n1`, 757 s.
The figure for `CCCN(CC1CCOC1)C(=O)Nc1cc(C)ccc1OC` (centres undefined) is 874 s; for `COc1cccc(Nc2c(-c3ccccc3)nc3cnccn23)c1` it is 828 s; for `CCOc1cccc(C2c3[nH]c4ccccc4c3CCN2C(=O)COC)c1` (centres undefined) it is 983 s.
In the case of `CCC(C)(C)C(=O)N1CCC2(CCc3nn(Cc4ccccc4)c(=O)n3CC2)CC1`, the RP-LC retention time turned out to be 811 s.
To `COc1cccc(C(C#N)N2N=C(C)CC2c2ccccc2)c1O` (centres undefined) belongs 965 s.
Compound `CSc1ccc(CNC(=O)C2CCCN(C(=O)c3[nH]c(C)cc3C)C2)cc1` (centres undefined) registered an RP-LC retention time of 701 s.
`O=C(COc1ccccc1F)Nc1nnc(-c2ccsc2)o1` yielded an RP-LC retention time of 701 s.
The figure for `CCCN(CCC)CCNC(=O)C1CCC(=O)N(c2ccc(OC)cc2)C1c1ccc(F)cc1` (centres undefined) is 649 s; for `O=C(CCc1conc1-c1cccc(F)c1)NCc1ccc(F)cc1` it is 899 s.
`CCN1CCn2cc(S(=O)(=O)Nc3cc(F)ccc3C)cc2C1=O` gave an RP-LC retention time of 725 s.
For the compound `CCc1nn2c(CNS(=O)(=O)c3ccccc3F)c(-c3ccccc3)nc2s1`, the RP-LC retention time is 907 s.
To `CCC(=O)N1CCc2cc(N3CC(C(=O)Nc4ccccc4CC)CC3=O)ccc21` (centres undefined) belongs 750 s.
For `C=CCN1CC[C@]23CCCCC2[C@H]1Cc1ccc(O)cc13` (some centres undefined), the RP-LC retention time came out at 691 s.
To `CS(=O)(=O)N1CC(c2nc(-c3cccnc3)no2)C2(CCOCC2)C1` (centres undefined) belongs 630 s; to `Cc1nc2nc(-c3ccc(C(C)(C)C)cc3)nn2c(C)c1CC(=O)N1CCN(C)CC1`, 682 s.
The figure for `O=C(Cc1cccs1)Nc1nnc(SCc2nnc(-c3ccc4c(c3)OCO4)o2)s1` is 814 s; for `O=c1ccc(N2CCCC(NS(=O)(=O)c3ccc(F)c(Cl)c3)C2)n[nH]1` (centres undefined) it is 706 s.
In the case of `O=C(Nc1ccc(F)cc1)C1CCCN(c2ccc3cc(S(=O)(=O)N4CCCCC4)ccc3n2)C1` (centres undefined), the RP-LC retention time was 883 s.
Compound `Cc1nn(-c2ccccc2)c(C)c1S(=O)(=O)N1CCC(C(=O)NC2CCCCC2)CC1` showed an RP-LC retention time of 912 s.
As for `Cc1cc(Cl)ccc1NC(=O)c1ncn2c1C(=O)N(C1CC1)C(C)(C(=O)NC1CCCC1)C2` (centres undefined), the RP-LC retention time came to 879 s.
The figure for `O=C(c1ccc(N2CCCC2)c(S(=O)(=O)N2CCCC2)c1)N1CCN(c2ccccn2)CC1` is 664 s.
To `CCn1cnc(S(=O)(=O)N2CCC(C(=O)NCCc3nc4ccc(C)cc4[nH]3)CC2)c1` belongs 589 s.
`Cc1ccc(-c2cc3c(=O)n(Cc4noc(CN5CCOCC5)n4)ccn3n2)c(C)c1`: the RP-LC retention time amounted to 792 s.
To `CC1CCN(S(=O)(=O)c2ccc3c(c2)CCCC(=O)N3CC(=O)NCc2ccc(F)cc2)CC1` belongs 926 s; to `CCOCCCNC(=O)C1CCN(c2cc(Oc3ccc(CC)cc3)ncn2)CC1`, 646 s; to `COc1ccc(Cn2c(=O)c3sccc3n(Cc3nc(-c4ccc(SC)cc4)no3)c2=O)cc1`, 1160 s.
`O=C(Cc1nnc2cc(-c3nc(C4CC4)no3)ccn12)NCC1CC1`: the RP-LC retention time was 820 s.
With `CC(C)NC(=O)N1CCOc2ccc(CCC(=O)O)cc2C1`, the RP-LC retention time stood at 671 s.
The figure for `O=S(=O)(c1ccc(-c2noc(-c3cccc(F)c3)n2)cc1)N1CCCCC1` is 1280 s; for `CCNc1cc(N2CCC(CCC(=O)Nc3ccc(OCC)cc3)CC2)ncn1` it is 682 s; for `O=C(Nc1ccc(F)cc1F)N1CC(Cc2nc(-c3cnccn3)no2)C1` it is 690 s.
The figure for `COc1ccc(NC(=O)NC2CCN(c3ccc(C)cc3)C2=O)cc1OC` (centres undefined) is 720 s.
